We go through 22 compounds from patent publication US20240025875A1, “A COMPOUND AS A THYROID HORMONE BETA RECEPTOR AGONIST AND USE THEREOF” (SUNSHINE LAKE PHARMA CO., LTD., priority 2020, published 2024).

One test addresses T1, TRα (Homo sapiens, UniProt P10827).
T1 construct: 5 μL of 4×TR beta/alfa-LBD; purchased Invitrogen PV4687
As to the kind of experiment: LanthaScreen TR-FRET Thyroid Receptor alfa Coactivator Assay (in vitro binding activity). To be noted: TR alfa-LBD. Here is the method:
(§1) 2. Detection of the Binding Activity of the Compound of the Present Invention to TRα or TRβ In Vitro
(§2) Test Materials • LanthaScreen TR-FRET Thyroid Receptor beta Coactivator Assay kit was purchased from Invitrogen, Cat. No. PV4686; • LanthaScreen TR-FRET Thyroid Receptor alfa Coactivator Assay kit was purchased from Invitrogen, Cat. No. PV4687.
(§3) The method was experimented with LanthaScreen TR-FRET Thyroid Receptor beta/alfa Coactivator Assay kit. The test compound was dissolved in DMSO and diluted 3 times to a total of 10 concentrations, and then diluted with TR-FRET Coregulator Buffer C in the kit to form a solution containing 2% DMSO, 10 μL of the solution containing 2% DMSO was taken into a 384-well plate, then 5 μL of 4×TR beta/alfa-LBD, 5 μL of a mixture containing 0.4 μM fluorescein-SRC2-2 and 8 nM Tb anti-GST antibody were added into each well, mixed thoroughly, and incubated at room temperature for 1 h in the dark. After 1 h, BMG LABTECH's PHERAstar FSX microplate reader was used to read the fluorescence value (RFU) at […]. The TR-FRET ratio was calculated by dividing the emission signal at 520 nm by the emission signal at 495 nm. Graph Pad Prism 5 software was used to draw the curve and calculate the EC50 value. The in vitro binding activity test results of some of the compounds of the examples of the present invention are shown in Table 1 below.

In another test the target is T2, TRβ (Homo sapiens, UniProt P10828).
T2 construct: 5 μL of 4×TR beta/alfa-LBD; purchased Invitrogen PV4686
T2 sequence (P10828 217-461 limits assumed): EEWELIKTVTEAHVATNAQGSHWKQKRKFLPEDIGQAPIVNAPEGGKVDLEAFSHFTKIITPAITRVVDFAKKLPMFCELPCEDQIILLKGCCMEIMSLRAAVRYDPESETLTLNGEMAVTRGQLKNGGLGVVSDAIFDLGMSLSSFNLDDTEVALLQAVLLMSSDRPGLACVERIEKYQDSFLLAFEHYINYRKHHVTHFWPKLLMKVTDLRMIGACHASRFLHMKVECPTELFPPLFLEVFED
As to the kind of experiment: LanthaScreen TR-FRET Thyroid Receptor beta Coactivator Assay (in vitro binding activity). To be noted: TR beta-LBD. As for the experimental part: as §1, §2, §3
On the technique in general: Time-resolved FRET reads energy transfer from a long-lived donor to a nearby acceptor.

Where only a bound is given, the exact number is not on record here.

For orientation: EC50 means the concentration giving half of the maximal effect. Read a high EC50 as a less potent agent.

T1 sequence (P10827 163-410 isoform P10827-2 limits assumed, other chains not shown): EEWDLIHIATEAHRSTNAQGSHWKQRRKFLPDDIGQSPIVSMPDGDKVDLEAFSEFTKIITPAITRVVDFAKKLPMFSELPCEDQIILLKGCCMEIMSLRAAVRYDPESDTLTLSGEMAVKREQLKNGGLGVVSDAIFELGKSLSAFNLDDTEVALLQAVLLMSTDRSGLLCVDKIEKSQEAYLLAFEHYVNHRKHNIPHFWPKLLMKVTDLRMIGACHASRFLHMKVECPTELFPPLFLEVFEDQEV

On to `O=C1c2ccc(Oc3c(Cl)cc(-n4ncc(=O)[nH]c4=O)cc3Cl)cc2CCN1Cc1cccnn1` [Example 25, 2-(3,5-dichloro-4-((1-oxo-2-(pyridazin-3-ylmethyl)-1,2,3,4-tetrahydroisoquinolin-6-yl)oxy)phenyl)-1,2,4-triazine-3,5(2H,4H)-dione], for which the EC50 was more than 100 µM at TRα and 0.241 µM on TRβ.
The corresponding values for `CN1CCc2cc(Oc3c(Cl)cc(-n4nc(C#N)c(=O)[nH]c4=O)cc3Cl)ccc2C1=O` [Example 2, 2-(3,5-dichloro-4-((2-methyl-1-oxo-1,2,3,4-tetrahydroisoquinolin-6-yl)oxy)phenyl)-3,5-dioxo-2,3,4,5-tetrahydro-1,2,4-triazine-6-carbonitrile] are 1.47 µM and 0.1 µM.
The corresponding values for `COCN1CCc2cc(Oc3c(Cl)cc(-n4nc(C#N)c(=O)[nH]c4=O)cc3Cl)ccc2C1=O` [Example 3, 2-(3,5-dichloro-4-((2-(methoxymethyl)-1-oxo-1,2,3,4-tetrahydroisoquinolin-6-yl)oxy)phenyl)-3,5-dioxo-2,3,4,5-tetrahydro-1,2,4-triazine-6-carbonitrile] are 0.29 µM and 0.026 µM.
In the same order, the values of `O=C1c2ccc(Oc3c(Cl)cc(-n4ncc(=O)[nH]c4=O)cc3Cl)cc2CCN1Cc1cc(F)cc(F)c1` [Example 32, 2-(3,5-dichloro-4-((2-(3,5-difluorobenzyl)-1-oxo-1,2,3,4-tetrahydroisoquinolin-6-yl)oxy)phenyl)-1,2,4-triazine-3,5(2H,4H)-dione] are 0.181 µM and 0.0046 µM.
As to `N#Cc1nn(-c2cc(Cl)c(Oc3ccc4c(c3)CCN(CC3CC3)C4=O)c(Cl)c2)c(=O)[nH]c1=O` [Example 38, 2-(3,5-dichloro-4-((2-(cyclopropylmethyl)-1-oxo-1,2,3,4-tetrahydroisoquinolin-6-yl)oxy)phenyl)-3,5-dioxo-2,3,4,5-tetrahydro-1,2,4-triazine-6-carbonitrile], the EC50 at TRα is less than 0.046 µM; at TRβ, less than 0.0046 µM.
The corresponding values for `CCOC(C)N1CCc2cc(Oc3c(Cl)cc(-n4nc(C#N)c(=O)[nH]c4=O)cc3Cl)ccc2C1=O` (centres unmarked) [Example 16, 2-(3,5-dichloro-4-((2-(1-ethoxyethyl)-1-oxo-1,2,3,4-tetrahydroisoquinolin-yl)oxy)phenyl)-3,5-dioxo-2,3,4,5-tetrahydro-1,2,4-triazine-6-carbonitrile] are 0.211 µM and 0.022 µM.
The corresponding values for `N#Cc1nn(-c2cc(Cl)c(Oc3ccc4c(c3)CCN(C=O)C4=O)c(Cl)c2)c(=O)[nH]c1=O` [Example 51, 2-(3,5-dichloro-4-((2-formyl-1-oxo-1,2,3,4-tetrahydroisoquinolin-6-yl)oxy)phenyl)-3,5-dioxo-2,3,4,5-tetrahydro-1,2,4-triazine-6-carbonitrile] are more than 100 µM and 0.904 µM.
In the same order, the values of `N#Cc1nn(-c2cc(Cl)c(Oc3ccc4c(c3)CCN(Cc3cc(F)cc(F)c3)C4=O)c(Cl)c2)c(=O)[nH]c1=O` [Example 32d, 2-(3,5-Dichloro-4-((2-(3,5-difluorobenzyl)-1-oxo-1,2,3,4-tetrahydroisoquinolin-6-yl)oxy)phenyl)-3,5-dioxo-2,3,4,5-tetrahydro-1,2,4-triazine-6-carbonitrile] are more than 100 µM and 0.054 µM.
In the case of `Cc1ccc(N2CCc3cc(Oc4c(Cl)cc(-n5nc(C#N)c(=O)[nH]c5=O)cc4Cl)ccc3C2=O)cc1` [Example 27, 2-(3,5-dichloro-4-((1-oxo-2-(p-tolyl)-1,2,3,4-tetrahydroisoquinolin-6-yl)oxy)phenyl)-3,5-dioxo-2,3,4,5-tetrahydro-1,2,4-triazine-6-carbonitrile], the values for the EC50 at TRα and at TRβ were more than 100 µM and 0.14 µM, respectively.
The corresponding values for `CC(C)OCN1CCc2cc(Oc3c(Cl)cc(-n4nc(C#N)c(=O)[nH]c4=O)cc3Cl)ccc2C1=O` [Example 13, 2-(3,5-Dichloro-4-((2-(isopropoxymethyl)-1-oxo-1,2,3,4-tetrahydroisoquinolin-6-yl)oxy)phenyl)-3,5-dioxo-2,3,4,5-tetrahydro-1,2,4-triazine-6-carbonitrile] are 0.073 µM and 0.013 µM.
As for `O=C1c2ccc(Oc3c(Cl)cc(-n4ncc(=O)[nH]c4=O)cc3Cl)cc2CCN1c1ccccn1` [Example 47], the EC50 at TRα stood at 0.161 µM; on TRβ, 0.039 µM.
In the same order, the values of `N#Cc1nn(-c2cc(Cl)c(Oc3ccc4c(c3)CCNC4=O)c(Cl)c2)c(=O)[nH]c1=O` [Example 1, 2-(3,5-dichloro-4-((1-oxo-1,2,3,4-tetrahydroisoquinolin-6-yl)oxy)phenyl)-3,5-dioxo-2,3,4,5-tetrahydro-1,2,4-triazine-6-carbonitrile] are more than 100 µM and 0.26 µM.
The corresponding values for `N#Cc1nn(-c2cc(Cl)c(Oc3ccc4c(c3)CCCNC4=O)c(Cl)c2)c(=O)[nH]c1=O` [Example 7, 2-(3,5-Dichloro-4-((1-oxo-2,3,4,5-tetrahydro-2H-benzo[c]azepin-7-yl)oxy)phenyl)-3,5-dioxo-2,3,4,5-tetrahydro-1,2,4-triazine-6-carbonitrile] are 0.95 µM and 0.092 µM.
In the same order, the values of `O=C1c2ccc(Oc3c(Cl)cc(-n4ncc(=O)[nH]c4=O)cc3Cl)cc2CCN1c1nccs1` [Example 52, 2-(3,5-dichloro-4-((1-oxo-2-(thiazol-2-yl)-1,2,3,4-tetrahydroisoquinolin-6-yl)oxy)phenyl)-1,2,4-triazine-3,5(2H,4H)-dione] are 0.23 µM and 0.016 µM.
For the compound `O=C1c2ccc(Oc3c(Cl)cc(-n4ncc(=O)[nH]c4=O)cc3Cl)cc2CCN1Cc1cccc(F)c1` [Example 31, 2-(3,5-dichloro-4-((2-(3-fluorobenzyl)-1-oxo-1,2,3,4-tetrahydroisoquinolin-6-yl)oxy)phenyl)-1,2,4-triazine-3,5(2H,4H)-dione], the EC50 on TRα is 0.107 µM; at TRβ, less than 0.0046 µM.
The corresponding values for `N#Cc1nn(-c2cc(Cl)c(Oc3ccc4c(c3)CCN(Cc3ccccc3F)C4=O)c(Cl)c2)c(=O)[nH]c1=O` [Example 33d, 2-(3,5-Dichloro-4-((2-(2-fluorobenzyl)-1-oxo-1,2,3,4-tetrahydroisoquinolin-6-yl)oxy)phenyl)-3,5-dioxo-2,3,4,5-tetrahydro-1,2,4-triazine-6-carbonitrile] are more than 100 µM and 0.11 µM.
The corresponding values for `CCOCN1CCc2cc(Oc3c(Cl)cc(-n4nc(C#N)c(=O)[nH]c4=O)cc3Cl)ccc2C1=O` [Example 4, 2-(3,5-dichloro-4-((2-(ethoxymethyl)-1-oxo-1,2,3,4-tetrahydroisoquinolin-6-yl)oxy)phenyl)-3,5-dioxo-2,3,4,5-tetrahydro-1,2,4-triazine-6-carbonitrile] are 0.21 µM and 0.018 µM.
The corresponding values for `N#Cc1nn(-c2cc(Cl)c(Oc3ccc4c(c3)CCN(c3cccnc3)C4=O)c(Cl)c2)c(=O)[nH]c1=O` [Example 49f, 2-(3,5-dichloro-4-((1-oxo-2-(pyridin-3-yl)-1,2,3,4-tetrahydroisoquinolin-6-yl)oxy)phenyl)-3,5-dioxo-2,3,4,5-tetrahydro-1,2,4-triazine-6-carbonitrile] are more than 100 µM and 0.769 µM.
As to `O=C1c2ccc(Oc3c(Cl)cc(-n4ncc(=O)[nH]c4=O)cc3Cl)cc2CCN1CC1CCOCC1` [Example 23, 2-(3,5-dichloro-4-((1-oxo-2-((tetrahydro-2H-pyran-4-yl)methyl)-1,2,3,4-tetrahydroisoquinolin-6-yl)oxy)phenyl)-1,2,4-triazine-3,5(2H,4H)-dione], the concentration for a half-maximal effect (EC50) on TRα is 0.386 µM; at TRβ it was 0.013 µM.
In the same order, the values of `N#Cc1nn(-c2cc(Cl)c(Oc3ccc4c(c3)CCN(c3ccc(F)cc3)C4=O)c(Cl)c2)c(=O)[nH]c1=O` [Example 28g] are more than 100 µM and 0.128 µM.
The corresponding values for `N#Cc1nn(-c2cc(Cl)c(Oc3ccc4c(c3)CCN(Cc3ccccc3)C4=O)c(Cl)c2)c(=O)[nH]c1=O` [Example 18, 2-(4-((2-Benzyl-1-oxo-1,2,3,4-tetrahydroisoquinolin-6-yl)oxy)-3,5-dichlorophenyl)-3,5-dioxo-2,3,4,5-tetrahydro-1,2,4-triazine-6-carbonitrile] are more than 100 µM and 0.192 µM.
In the same order, the values of `N#Cc1nn(-c2cc(Cl)c(Oc3ccc4c(c3)CCN(Cc3ccc(F)c(Cl)c3)C4=O)c(Cl)c2)c(=O)[nH]c1=O` [Example 35d, 2-(3,5-dichloro-4-((2-(3-chloro-4-fluorobenzyl)-1-oxo-1,2,3,4-tetrahydroisoquinolin-6-yl)oxy)phenyl)-3,5-dioxo-2,3,4,5-tetrahydro-1,2,4-triazine-6-carbonitrile] are more than 100 µM and 0.08 µM.
